A value given as a limit tells only on which side of the number the result lay.

The nature of data set [1]: Pharmacokinetic studies of ERX-41. Format: in vivo, mice. As to the method:
FIGS. 35A-P: ERX-41 is potent against TNBC in vivo. (FIG. 35A) Following establishment of subcutaneous MDA-MB-231 xenograft tumors (200 mm^3), 10 mg/kg single dose ERX-41 was administered either by oral or intraperitoneal route. The tumor was harvested 0, 0, 5, 1, 5, 3, 6 and 24 h after drug administration and the drug levels assayed by LC-MS/MS and graphed. (FIGS. 35B-E) Following establishment of MDA-MB-231 xenografts in mammary fat pad in vivo (100 mm^3 size), daily administration of 10 mg/kg ERX-41 or vehicle control (N=8 each group) was initiated. Tumor volumes were measured using digital calipers and graphed (FIG. 35B). Tumor weights (FIG. 35C), body weights (FIG. 35D) and extirpated tumors (FIG. 35E) at end of study are also shown. (FIGS. 35F-H) Following establishment of D2A1 syngeneic xenografts in mammary fat pad in vivo (100 mm^3 size), daily administration of 10 mg/kg ERX-41 or vehicle control (N=8 each group) was initiated. Tumor volumes were measured using digital calipers and graphed (FIG. 35F) along with tumor weights (FIG. 35G) and body weights (FIG. 35H). (FIGS. 35I-P) Effect of ERX-41 on the growth (FIG. 351, FIG. 35K, FIG. 35M, FIG. 35O) and tumor weights (FIG. 35J, FIG. 35L, FIG. 35N, FIG. 35P) of four distinct TNBC PDXs compared to vehicle. *p<0.05. **p<0.01; ***p<0.001.
(§1) Additionally, ERX-41 was detectable within 1.5 h in established subcutaneous MDA-MB-231 xenograft tumors after oral or intraperitoneal administration (FIG. 35A). […] ERX-41 decreased tumor growth, as shown by extirpated tumor sizes at the end of study (FIG. 35C and FIG. 35E). […] The inventors validated the activity of ERX-41 in four distinct TNBC PDXs established in the mammary fat pad (FIGS. 35I-P).

A further data set has as its system TNBC cells. Description: De novo protein synthesis, puromycin labeled nascent proteins. Format: cell-based. To be noted: 4 h and 16 h. The text has this: Total protein is shown on right with coomassie blue staining.
The basal level of expression of endoplasmic reticulum stress and unfolded protein response correlates with TK41 activity (FIG. 28). Modulation of the level of these stress proteins affects the activity of TK41. Thus, the basal level of expression of endoplasmic reticulum stress and unfolded protein response proteins may serve as a biomarker to predict response to TK41. […] Without wishing to be bound by any particular theory, the mechanism of action of TK41 may operate comprise targeting either ER or TLX and inducing endoplasmic reticulum stress, subsequent apoptosis, and blocking autophagic fusion (FIG. 30).

Data set [2] concerns parental SUM-159 xenografts. Description: Parental SUM-159 xenografts. To be noted: 10 mg/kg daily. Format: in vivo, SCID mice. From the text: (§2) FIGS. 37A-J: The molecular target of ERX-41 in TNBC is LIPA. […] (FIG. 37B) Knockout clones of LIPA, ACACA, TMEM208, SOAT1 and ARID1A were generated in MDA-MB-231 cells and evaluated for response to ERX-41 using doseresponse curves using CellTiter-Glo assays in vitro. (FIGS. 37C-D) Effect of knockout of LIPA in SUM-159 (FIG. 37C) and MDA-MB436 (FIG. 37D) on dose response curve to ERX-41 using CellTiter-Glo assays in vitro. (FIGS. 37E-F) Dose response curves of SUM-159 parental cells and clones with LIPA KO to thapsigargin (FIG. 37E) and paclitaxel (FIG. 37F). (FIGS. 37G-H) Live cell imaging studies with SYTOX Green to examine ability of 1 μM ERX-41 to induce cell death in parental SUM-159 and SUM-159 clones with LIPA KO, with quantitation (FIG. 37G) and time-lapsed photomicrographs at 0 h and 30 h ((FIG. 37H). (FIGS. 37I-J) SCID mice were implanted with either parental SUM-159 or SUM-159 clones with LIPA KO (n=6, each group) and tumors were allowed to establish (150 mm^3). Following daily intraperitoneal administration of 10 mg/kg ERX-41, tumor sizes were measured and graphed (FIG. 37I), along with mice body weights (FIG. 37J). *p<0.05. **p<0.01; ***p<0.001.
(§3) The molecular target of ERX-41 in TNBC is LIPA. […] Knockout clones of LIPA, SLC5A3, SMAP2, TMEM208, SOAT1 and ARID1A were generated in multiple TNBC cells and evaluated for response to ERX-41.

The test system of data set [3] is xenografts of SUM-159 with LIPA KO. Nature of the data set: SUM-159 LIPA KO xenografts. Format: in vivo, SCID mice. To be noted: 10 mg/kg daily.
Source text: as §2, §3

Data set [4] in a line: Tolerability of ERX-41 in mice. Format: in vivo. To be noted: daily oral or intraperitoneal, up to 200 mg/kg. As to the method: as §1

For the compound `CC(C)COc1cc(C(=O)Nc2ccc(C(=O)N[C@H]3CC[C@H](C)CC3)cc2OCC(C)C)ccc1NC(=O)c1ccc([N+](=O)[O-])c(OCCO)c1` [TK41], the oral bioavailability result in data set [1] (mouse, in vivo, po) was “orally bioavailable”. The “time of peak detectable levels in the plasma” value in data set [1] (oral, 10 mg/kg single dose) stood at 4 h. Also, the “time until detectable in tumors” value in data set [1] (subcutaneous MDA-MB-231 xenograft tumors, oral or intraperitoneal) is at most 1.5 h. Further, the “de novo protein synthesis” value is reported as “shuts down de novo protein synthesis” in the data set with TNBC cells and “decreases global new protein synthesis” in the data set with TNBC cells (listed as TK-41). In data set [2], the “response of parental SUM-159 xenografts” value was “responded significantly”. Also, in data set [3], the “response of SUM-159 LIPA KO xenografts” value is given as “did not respond”. The tolerability entry in data set [4] is “well tolerated”.

The record behind these values is patent publication US12275685B2, “Oligo-benzamide analogs and their use in cancer treatment” (Board of Regents, The University of Texas System, priority 2018, dated 2025).
